From article PMC7859335, “Discovery of Diaryl Ether Substituted Tetrahydrophthalazinones as TbrPDEB1 Inhibitors Following Structure-Based Virtual Screening” (Frontiers in Chemistry, 2021)

What follows are molecules tested against T1, TbrPDEB1 (Trypanosoma brucei, UniProt Q8WQX9) (assay: TbrPDEB1 catalytic domain phosphodiesterase activity assay (PDELight HTS cAMP kit)). Conditions: single point assay at 10 μM inhibitor.
T1 construct: The TbrPDEB1 catalytic domain phosphodiesterase activity assays were conducted based on a method reported by Sijm et al
T1 sequence (Q8WQX9 565-918 limits assumed): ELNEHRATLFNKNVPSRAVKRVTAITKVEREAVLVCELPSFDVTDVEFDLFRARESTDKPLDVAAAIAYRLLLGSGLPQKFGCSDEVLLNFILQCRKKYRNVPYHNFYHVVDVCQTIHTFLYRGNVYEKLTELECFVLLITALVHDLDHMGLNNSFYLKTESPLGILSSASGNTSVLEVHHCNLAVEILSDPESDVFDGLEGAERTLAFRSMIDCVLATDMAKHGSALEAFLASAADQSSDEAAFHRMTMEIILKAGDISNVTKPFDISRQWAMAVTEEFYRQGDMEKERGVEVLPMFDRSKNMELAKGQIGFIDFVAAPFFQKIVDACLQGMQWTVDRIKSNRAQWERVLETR
Format: biochemical
Experimental: The TbrPDEB1 catalytic domain phosphodiesterase activity assays were conducted based on a method reported by Sijm et al. ([2019]) with minor adaptations (Sijm et al., [2019]). The PDELight™ HTS cAMP phosphodiesterase Kit (Lonza, Walkersville, USA) was performed at 25°C in non-binding, low volume 384-well plates (Corning, Kennebunk, ME, USA). […] Single concentration measurements were made at 10 μM inhibitor concentration (triplo measurements/assay, n = 2). Dose-response curves were made in the range 100 μM−10 pM (triplo measurements/assay, n = 3). Compounds were diluted in DMSO (final in-test concentration 1%). Inhibitor dilutions (2.5 μL) were transferred to the 384-well plates, 2.5 μL of PDE in stimulation buffer was added and mixed, 5 μL of cAMP (at 2 × Km up to 20 μM) added and the assay mixture was incubated for 20 min at 300 rpm. […] Then, 5 μL of Lonza Detection reagent (diluted to 80% with reaction buffer) was added and the reaction incubated for 10 min at 300 rpm. Luminescence was read with a Victor3 luminometer using a 0.1 s/well program.
The Ki values of the inhibitors analyzed are represented as the mean of at least three independent experiments with the associated standard error of the mean (S.E.M.).

Structure (SMILES) | TbrPDEB1 (% inh.)
COc1ccc(C2=NN(C(C)C)C(=O)[C@H]3CC=CC[C@@H]23)cc1Oc1nccc2sccc12 (relative stereo) [2j, cis-2-Isopropyl-4-(4-methoxy-3-(thieno[3,2-c]pyridin-4-yloxy)phenyl)-4a,5,8,8a-tetrahydrophthalazin-1(2H)-one] | No inhibition
COc1ccc(C2=NN(C(C)C)C(=O)[C@H]3CC=CC[C@@H]23)cc1Oc1ncnc2sccc12 (relative stereo) [2k, cis-2-Isopropyl-4-(4-methoxy-3-(thieno[2,3-d]pyrimidin-4-yloxy)phenyl)-4a,5,8,8a-tetrahydrophthalazin-1(2H)-one] | No inhibition
COc1ccc(C2=NN(C(C)C)C(=O)[C@H]3CC=CC[C@@H]23)cc1Oc1nccn2cnnc12 (relative stereo) [2l, cis-4-(3-([1,2,4]Triazolo[4,3-a]pyrazin-8-yloxy)-4-methoxyphenyl)-2-isopropyl-4a,5,8,8a-tetrahydrophthalazin-1(2H)-one] | No inhibition
COc1ccc(C2=NN(C(C)C)C(=O)[C@H]3CC=CC[C@@H]23)cc1Oc1nc2ccccc2s1 (relative stereo) [2p, cis-4-(3-(Benzo[d]thiazol-2-yloxy)-4-methoxyphenyl)-2-isopropyl-4a,5,8,8a-tetrahydrophthalazin-1(2H)-one] | No inhibition

The remaining lines, values ahead:

TbrPDEB1 (% inh.) | Structure (SMILES)
No inhibition | COC(=O)c1cccnc1Oc1cc(C2=NN(C(C)C)C(=O)[C@@H]3CC=CC[C@H]23)ccc1OC (relative stereo) [3a, Methyl 2-(5-(cis-3-isopropyl-4-oxo-3,4,4a,5,8,8a-hexahydrophthalazin-1-yl)-2-methoxyphenoxy)nicotinate]
No inhibition | COc1ccc(C2=NN(C(C)C)C(=O)[C@@H]3CC=CC[C@H]23)cc1Oc1cc(C#N)ccn1 (relative stereo) [3b, 2-(5-(cis-3-Isopropyl-4-oxo-3,4,4a,5,8,8a-hexahydrophthalazin-1-yl)-2-methoxyphenoxy)isonicotinonitrile]
No inhibition | COc1ccc(C2=NN(C(C)C)C(=O)[C@@H]3CC=CC[C@H]23)cc1Oc1ncccc1C(=O)O (relative stereo) [3e, 2-(5-(cis-3-Isopropyl-4-oxo-3,4,4a,5,8,8a-hexahydrophthalazin-1-yl)-2-methoxyphenoxy)nicotinic acid]
No inhibition | COc1ccc(C2=NN(C(C)C)C(=O)[C@@H]3CC=CC[C@H]23)cc1Oc1cc(C(=O)O)ccn1 (relative stereo) [3f, 2-(5-(cis-3-Isopropyl-4-oxo-3,4,4a,5,8,8a-hexahydrophthalazin-1-yl)-2-methoxyphenoxy)isonicotinic acid]
No inhibition | COc1ccc(C2=NN(C(C)C)C(=O)[C@@H]3CC=CC[C@H]23)cc1Oc1cccc(C(=O)O)n1 (relative stereo) [3h, 6-(5-(cis-3-Isopropyl-4-oxo-3,4,4a,5,8,8a-hexahydrophthalazin-1-yl)-2-methoxyphenoxy)picolinic acid]
No inhibition | COc1ccc(C2=NN(C(C)C)C(=O)[C@@H]3CC=CC[C@H]23)cc1Oc1ncccc1C(N)=O (relative stereo) [3i, 2-(5-(cis-3-Isopropyl-4-oxo-3,4,4a,5,8,8a-hexahydrophthalazin-1-yl)-2-methoxyphenoxy)nicotinamide]
No inhibition | COc1ccc(C2=NN(C(C)C)C(=O)[C@@H]3CC=CC[C@H]23)cc1Oc1cc(C(N)=O)ccn1 (relative stereo) [3j, 2-(5-(cis-3-Isopropyl-4-oxo-3,4,4a,5,8,8a-hexahydrophthalazin-1-yl)-2-methoxyphenoxy)isonicotinamide]
No inhibition | COc1ccc(C2=NN(C(C)C)C(=O)[C@@H]3CC=CC[C@H]23)cc1Oc1ccc(C(N)=O)cn1 (relative stereo) [3k, 6-(5-(cis-3-Isopropyl-4-oxo-3,4,4a,5,8,8a-hexahydrophthalazin-1-yl)-2-methoxyphenoxy)nicotinamide]
No inhibition | CCCCNC(=O)c1cccnc1Oc1cc(C2=NN(C(C)C)C(=O)[C@@H]3CC=CC[C@H]23)ccc1OC (relative stereo) [3p, N-Butyl-2-(5-(cis-3-isopropyl-4-oxo-3,4,4a,5,8,8a-hexahydrophthalazin-1-yl)-2-methoxyphenoxy)nicotinamide]
No inhibition | CCCCNC(=O)c1ccnc(Oc2cc(C3=NN(C(C)C)C(=O)[C@@H]4CC=CC[C@H]34)ccc2OC)c1 (relative stereo) [3q, N-Butyl-2-(5-(cis-3-isopropyl-4-oxo-3,4,4a,5,8,8a-hexahydrophthalazin-1-yl)-2-methoxyphenoxy)isonicotinamide]
No inhibition | CCCCNC(=O)c1ccc(Oc2cc(C3=NN(C(C)C)C(=O)[C@@H]4CC=CC[C@H]34)ccc2OC)nc1 (relative stereo) [3r, N-Butyl-6-(5-(cis-3-isopropyl-4-oxo-3,4,4a,5,8,8a-hexahydrophthalazin-1-yl)-2-methoxyphenoxy)nicotinamide]
No inhibition | COc1ccc(C2=NN(C(C)C)C(=O)[C@@H]3CC=CC[C@H]23)cc1Oc1ncccc1C(=O)NCc1ccco1 (relative stereo) [3t, N-(Furan-2-ylmethyl)-2-(5-(cis-3-isopropyl-4-oxo-3,4,4a,5,8,8a-hexahydrophthalazin-1-yl)-2-methoxyphenoxy)nicotinamide]

Same assay, conditions: single point assay at 10 μM inhibitor; read-out: TbrPDEB1 (% inh.)

Structure (SMILES) | inhibition at 10 µM
COc1ccc(C2=NN(C(C)C)C(=O)[C@H]3CC=CC[C@@H]23)cc1Oc1nccs1 (relative stereo) [2a, cis-2-Isopropyl-4-(4-methoxy-3-(thiazol-2-yloxy)phenyl)-4a,5,8,8a-tetrahydrophthalazin-1(2H)-one] | 12 ± 3%
CCOC(=O)c1cnc(Oc2cc(C3=NN(C(C)C)C(=O)[C@@H]4CC=CC[C@H]34)ccc2OC)s1 (relative stereo) [2b, Ethyl 2-(5-(cis-3-isopropyl-4-oxo-3,4,4a,5,8,8a-hexahydrophthalazin-1-yl)-2-methoxyphenoxy)thiazole-5-carboxylate] | 11%
COc1ccc(C2=NN(C(C)C)C(=O)[C@H]3CC=CC[C@@H]23)cc1Oc1ncc(CN2CCOCC2)s1 (relative stereo) [2c, cis-2-Isopropyl-4-(4-methoxy-3-((5-(morpholinomethyl)thiazol-2-yl)oxy)phenyl)-4a,5,8,8a-tetrahydrophthalazin-1(2H)-one] | 40 ± 4%
COc1ccc(C2=NN(C(C)C)C(=O)[C@@H]3CC=CC[C@H]23)cc1Oc1cnc(C(N)=O)cn1 (relative stereo) [2e, 5-(5-(cis-3-Isopropyl-4-oxo-3,4,4a,5,8,8a-hexahydrophthalazin-1-yl)-2-methoxyphenoxy)pyrazine-2-carboxamide] | 18 ± 9%
COc1ccc(C2=NN(C(C)C)C(=O)[C@H]3CC=CC[C@@H]23)cc1Oc1cc(N2CCOCC2)ncn1 (relative stereo) [2f, cis-2-Isopropyl-4-(4-methoxy-3-((6-morpholinopyrimidin-4-yl)oxy)phenyl)-4a,5,8,8a-tetrahydrophthalazin-1(2H)-one] | 11 ± 8%

The next lines start with the values.

inhibition at 10 µM | Structure (SMILES)
36 ± 6% | COc1ccc(C2=NN(C(C)C)C(=O)[C@@H]3CC=CC[C@H]23)cc1Oc1cccc(C#N)n1 (relative stereo) [3d, 6-(5-(cis-3-Isopropyl-4-oxo-3,4,4a,5,8,8a-hexahydrophthalazin-1-yl)-2-methoxyphenoxy)picolinonitrile]
11 ± 6% | COc1ccc(C2=NN(C(C)C)C(=O)[C@@H]3CC=CC[C@H]23)cc1Oc1ccc(C(=O)O)cn1 (relative stereo) [3g, 6-(5-(cis-3-Isopropyl-4-oxo-3,4,4a,5,8,8a-hexahydrophthalazin-1-yl)-2-methoxyphenoxy)nicotinic acid]
27% | COc1ccc(C2=NN(C(C)C)C(=O)[C@@H]3CC=CC[C@H]23)cc1Oc1cc(C(=O)NCC(N)=O)ccn1 (relative stereo) [3m, N-(2-Amino-2-oxoethyl)-2-(5-(cis-3-isopropyl-4-oxo-3,4,4a,5,8,8a-hexahydrophthalazin-1-yl)-2-methoxyphenoxy)isonicotinamide]
5 ± 1% | COc1ccc(C2=NN(C(C)C)C(=O)[C@@H]3CC=CC[C@H]23)cc1Oc1ccc(C(=O)NCC(N)=O)cn1 (relative stereo) [3n, N-(2-Amino-2-oxoethyl)-6-(5-(cis-3-isopropyl-4-oxo-3,4,4a,5,8,8a-hexahydrophthalazin-1-yl)-2-methoxyphenoxy)nicotinamide]
40 ± 1% | COc1ccc(C2=NN(C(C)C)C(=O)[C@@H]3CC=CC[C@H]23)cc1Oc1cccc(C(=O)NCC(N)=O)n1 (relative stereo) [3o, N-(2-Amino-2-oxoethyl)-6-(5-(cis-3-isopropyl-4-oxo-3,4,4a,5,8,8a-hexahydrophthalazin-1-yl)-2-methoxyphenoxy)picolinamide]
